Results as given in patent US8609836B2, “4-aryl-2-anilino-pyrimidines” (Janssen Pharmaceutica NV, priority 2008, dated 2013).

Key:
[1] = biological target: AuroraB (h) (Homo sapiens, UniProt Q96GD4); test: Aurora-B human kinase inhibition, SPA; format: biochemical; details: read-out: AuroraB pIC50 (converted)
Outline: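 SPA with biotinylated peptide (3 μM) in 60 mM Hepes pH 7.5, Mg/Mn 3 mM each, 0.5 μM ATP plus [γ-33P]ATP, AuroraB at 0.5 μg/ml. The reaction runs 60 min at room temperature and is stopped with EDTA and streptavidin PVT beads. 33P-substrate is read by scintillation imaging.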

[2] = biological target: GSK3β (h) (Homo sapiens, UniProt P49841); test: GSK-3β human kinase inhibition, SPA; format: biochemical; details: read-out: GSK3b pIC50 (converted)
Outline: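 Scintillation proximity assay: GSK3β (1 μg/ml) with 1 μM biotinylated peptide, 1 μM ATP plus [γ-33P]ATP in Tris pH 7.4, MgCl2, DTT. 60 min at room temperature, stopped with EDTA and streptavidin PVT beads; phosphorylation read by Leadseeker imaging.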

[3] = biological target: CDK4/CyclinD1 (h) (Homo sapiens, UniProt P11802); test: CDK4/CyclinD1 human kinase inhibition, SPA with GST-pRb substrate; format: biochemical; details: read-out: CDK4 pIC50 (converted)
Outline: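 Human CDK4/CyclinD1 (2.5 μg/ml) was incubated with 40 μg/ml GST-pRb and 2 nM [γ-33P]ATP in 50 mM Hepes pH 7.5, 8 mM NaF, 20 mM MgCl2, 1 mM DTT for 60 min at room temperature. EDTA stop with glutathione SPA beads; phosphorylation read by scintillation counting.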

[4] = test system: HCT-116; test: Cellular proliferation assay (Alamar blue), HCT-116; format: cell-based; details: Homo sapiens, 10% FCS, 72 hours with compound, Alamar blue 4 h
Outline: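 Cells were seeded in medium with 10% FCS at 37° C, 5% CO2, left 24 h without compound, then exposed to compounds for 72 h. Viability was read with Alamar blue (resazurin 9 μg/ml, K-ferrocyanide and K-ferricyanide 90 μM each), 6 h for U87-MG, 4 h for HCT-116, 24 h for A2780 and MDA-MB-231.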

Sequence of GSK3β (h) (P49841 whole entry): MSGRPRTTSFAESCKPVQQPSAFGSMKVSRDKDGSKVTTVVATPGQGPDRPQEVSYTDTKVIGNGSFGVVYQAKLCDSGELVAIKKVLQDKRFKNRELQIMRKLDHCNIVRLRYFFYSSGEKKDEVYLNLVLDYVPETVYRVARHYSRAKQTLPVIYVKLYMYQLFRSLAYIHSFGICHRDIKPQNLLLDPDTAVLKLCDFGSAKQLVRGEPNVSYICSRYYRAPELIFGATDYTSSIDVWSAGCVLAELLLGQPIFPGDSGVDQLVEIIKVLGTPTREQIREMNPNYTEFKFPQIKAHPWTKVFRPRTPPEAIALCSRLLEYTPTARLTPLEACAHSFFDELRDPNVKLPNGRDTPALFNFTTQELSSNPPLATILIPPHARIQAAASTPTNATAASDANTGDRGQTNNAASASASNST
Sequence of AuroraB (h) (Q96GD4 whole entry): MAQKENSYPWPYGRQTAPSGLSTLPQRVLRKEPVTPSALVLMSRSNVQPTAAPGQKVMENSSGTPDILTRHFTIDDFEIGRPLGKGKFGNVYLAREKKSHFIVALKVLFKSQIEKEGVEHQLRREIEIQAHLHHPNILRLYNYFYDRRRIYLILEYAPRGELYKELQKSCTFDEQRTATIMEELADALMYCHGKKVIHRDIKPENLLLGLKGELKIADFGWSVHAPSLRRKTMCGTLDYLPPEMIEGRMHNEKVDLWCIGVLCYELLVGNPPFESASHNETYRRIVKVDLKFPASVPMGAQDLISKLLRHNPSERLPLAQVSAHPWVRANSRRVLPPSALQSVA
Sequence of CDK4/CyclinD1 (h) (P11802 whole entry): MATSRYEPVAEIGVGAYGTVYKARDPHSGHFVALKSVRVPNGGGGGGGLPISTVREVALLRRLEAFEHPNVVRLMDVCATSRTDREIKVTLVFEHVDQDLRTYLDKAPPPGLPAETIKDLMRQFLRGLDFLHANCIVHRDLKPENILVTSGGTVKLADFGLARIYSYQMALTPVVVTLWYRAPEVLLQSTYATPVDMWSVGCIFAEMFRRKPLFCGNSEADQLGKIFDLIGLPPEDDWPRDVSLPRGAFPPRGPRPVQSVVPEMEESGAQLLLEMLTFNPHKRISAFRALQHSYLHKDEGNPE
Sequence of CDK4/CyclinD1 (h) (P24385 whole entry partner): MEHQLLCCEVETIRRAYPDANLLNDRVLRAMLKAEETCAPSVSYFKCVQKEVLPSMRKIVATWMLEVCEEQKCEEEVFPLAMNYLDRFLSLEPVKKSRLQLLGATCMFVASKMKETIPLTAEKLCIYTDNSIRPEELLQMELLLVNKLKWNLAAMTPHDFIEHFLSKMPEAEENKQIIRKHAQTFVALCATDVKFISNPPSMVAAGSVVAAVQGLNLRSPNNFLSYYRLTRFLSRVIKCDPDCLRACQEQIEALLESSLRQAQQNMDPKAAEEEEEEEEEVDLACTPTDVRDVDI

C[C@@H]1NCCc2cccc(c2)-c2ccnc(n2)Nc2ccc(N3CCOCC3)c(c2)CNC1=O [Compound 100]
IC50 [1]: > 10 µM
IC50 [2]: 0.0759 µM
IC50 [3]: 0.2 µM
IC50 [4]: 0.724 µM

COc1cc2cc(c1)Nc1nccc(n1)-c1ccc(cc1)CN(C)CCNC(=O)[C@@H]1CCCN1C2 [Compound 158]
IC50 [1]: > 10 µM
IC50 [2]: > 10 µM
IC50 [3]: > 10 µM
IC50 [4]: > 10 µM

CC(C)Nc1cc2cc(c1)Nc1nccc(n1)-c1ccc(cc1)CN(C)CCCNC(=O)CN1CCN(CC1)C2 [Compound 131]
IC50 [1]: > 10 µM
IC50 [2]: 4.37 µM
IC50 [3]: > 10 µM
IC50 [4]: 5.25 µM

CN1CCC(NC(=O)c2ccc3cc2CN2CCC[C@H]2C(=O)NCc2cccc(c2)-c2ccnc(n2)N3)CC1 [Compound 47]
IC50 [1]: > 10 µM
IC50 [2]: 0.398 µM
IC50 [3]: 1.2 µM
IC50 [4]: 2.45 µM

COc1ccc2cc1CN(C)CCNC(=O)[C@@H]1CCCN1Cc1cc(cc(NC(C)C)c1)Nc1nccc-2n1 [Compound 165]
IC50 [1]: > 10 µM
IC50 [2]: > 10 µM
IC50 [3]: > 10 µM
IC50 [4]: 5.62 µM

COc1ccc2cc1CN(C)CCCNC(=O)[C@@H]1CCCN1Cc1cc(NCCc3ccccc3)cc(c1)Nc1nccc-2n1 [Compound 167]
IC50 [1]: > 10 µM
IC50 [2]: > 10 µM
IC50 [3]: > 10 µM
IC50 [4]: 2.24 µM

COc1cc2cc(c1)Nc1nccc(n1)-c1ccc(cc1)CN(C)CCNC(=O)[C@H](CO)NC2 [Compound 109]
IC50 [1]: 7.41 µM
IC50 [2]: 4.79 µM
IC50 [3]: > 10 µM
IC50 [4]: 2.69 µM

O=C1NCc2cc(ccc2N2CCOCC2)Nc2nccc(n2)-c2cccc(c2)CCCN2CCC[C@@H]12 [Compound 149]
IC50 [1]: 11 µM
IC50 [2]: 0.117 µM
IC50 [3]: 0.0724 µM
IC50 [4]: 0.117 µM

O=C1NCc2cccc(c2)-c2ccnc(n2)Nc2ccc(cc2)CN2CCC[C@@H]12 [Compound 54]
IC50 [1]: > 10 µM
IC50 [2]: > 10 µM
IC50 [3]: 7.41 µM
IC50 [4]: > 10 µM

COc1cc2cc(c1)Nc1nccc(n1)-c1ccc(cc1)CN(C)CCCNC(=O)[C@@H]1CCCN1C2 [Compound 156]
IC50 [1]: > 10 µM
IC50 [2]: > 10 µM
IC50 [3]: > 10 µM
IC50 [4]: > 10 µM

O=C(NC1CCOCC1)c1cc2cc(c1)Nc1nccc(n1)-c1cccc(c1)CNC(=O)[C@@H]1CCCN1C2 [Compound 37]
IC50 [1]: 4.9 µM
IC50 [2]: 0.676 µM
IC50 [3]: > 10 µM
IC50 [4]: > 10 µM

O=C1NCc2cccc(c2)-c2ccnc(n2)Nc2cccc(c2)CN2CCC1CC2 [Compound 124]
IC50 [1]: > 10 µM
IC50 [2]: 0.457 µM
IC50 [3]: 1.7 µM
IC50 [4]: 2.88 µM

O=C1NCc2cccc(c2)-c2ccnc(n2)Nc2cc(ccc2Cl)CN2CCC[C@@H]12 [Compound 51]
IC50 [1]: > 10 µM
IC50 [2]: > 10 µM
IC50 [3]: > 10 µM
IC50 [4]: > 10 µM

COc1cc2cc(c1)Nc1nccc(n1)-c1ccc(OC)c(c1)CN(C)CCNC(=O)[C@H](CO)NC2 [Compound 107]
IC50 [1]: 2.04 µM
IC50 [2]: 6.31 µM
IC50 [3]: > 10 µM
IC50 [4]: 4.37 µM

COc1cc2cc(c1OC)CN1CCC[C@H]1C(=O)NCc1cccc(c1)-c1ccnc(n1)N2 [Compound 23]
IC50 [1]: > 10 µM
IC50 [2]: 0.195 µM
IC50 [3]: > 10 µM
IC50 [4]: > 10 µM

COc1cc2cc(c1OC)CN1CCC[C@H]1C(=O)N(C)CCN(C)c1cc(ccn1)-c1ccnc(n1)N2 [Compound 17]
IC50 [1]: > 10 µM
IC50 [2]: 0.851 µM
IC50 [3]: > 10 µM
IC50 [4]: > 10 µM

CN1CCNC(=O)[C@H](CO)NCc2cccc(c2)Nc2nccc(n2)-c2ccc(cc2)C1 [Compound 114]
IC50 [1]: 7.08 µM
IC50 [2]: 2.82 µM
IC50 [3]: > 10 µM
IC50 [4]: > 10 µM

COc1cc2cc(c1)Nc1nccc(n1)-c1ccc(OC)c(c1)CN(C)CCNC(=O)[C@@H]1CCCN1C2 [Compound 162]
IC50 [1]: 6.61 µM
IC50 [2]: 8.32 µM
IC50 [3]: > 10 µM
IC50 [4]: > 10 µM

CN1CCN(C)c2ccc(cn2)-c2ccnc(n2)Nc2cc(c3c(c2)OCO3)CN2CCC[C@H]2C1=O [Compound 168]
IC50 [1]: 2.57 µM
IC50 [2]: 1.45 µM
IC50 [3]: 2.14 µM
IC50 [4]: > 10 µM

COc1ccc2cc1CN[C@@H](CO)C(=O)N(C)CCCN(C)c1ccc(cn1)-c1ccnc(n1)N2 [Compound 11]
IC50 [1]: > 10 µM
IC50 [2]: 2.09 µM
IC50 [3]: > 10 µM
IC50 [4]: > 10 µM

COc1ccc2cc1CN(C)CCNC(=O)[C@@H]1CCCN1Cc1cc(C#N)cc(c1)Nc1nccc-2n1 [Compound 181]
IC50 [1]: > 10 µM
IC50 [2]: > 10 µM
IC50 [3]: > 10 µM
IC50 [4]: 4.9 µM
